Experimental data: PMC6663879, “Biochemical and structural investigations clarify the substrate selectivity of the 2-oxoglutarate oxygenase JMJD6” (The Journal of Biological Chemistry, 2019)
Values joined by “and” are separate entries in the source; they are usually repeats but may differ in a detail not shown here. Identical values can stand only once. Ends that are not written are not given here.

Experiments:
JMJD6^Δ363–403 [1] = target: T1, JMJD6^Δ363–403 (Homo sapiens, UniProt Q6NYC1); experiment: Standard MS-based hydroxylation assay (MALDI-TOF MS) of substrate peptides; assay type: biochemical; set-up: two more variants (aa 1–362, JMJD6^Δ363–403, and aa 1–343, JMJD6^Δ344–403); His6 (N); made in house; host or cells: Escherichia coli Rosetta2(DE3); conditions: for Hydroxylation: 10 μM JMJD6^Δ363–403, 100 μM peptide, 100 μM Fe(II), 400 μM ascorbate, 500 μM 2OG, 50 mM HEPES-KOH pH 8.0, 37 °C, 30 min, MALDI-TOF MS; for Hydroxylation / kcat / Km: mean ± S.D. (n = 3); for kcat/Km^app / kcat / Km: standard hydroxylation assay conditions, substrate peptide varied 0–400 μM; for Km: read-out: Km^app; for JMJD6-catalyzed hydroxylation (+16-Da mass shift), result in words: JMJD6^Δ363–403, standard assay conditions, MALDI-TOF MS / LC-MS/MS
[2] = tested on: SAKcaC (stretch-activated BK channel); experiment: Single-channel current recording of SAKcaC with GsMTx4 back-filled in the pipette; assay type: cell-based, chick; conditions: for Po of SAKcaC (amplitude histogram): 50 nM GsMTx4 in pipette, 25 min after onset of back-filling, chick ventricular myocytes, typical patch
JMJD2E (KDM4E) = experiment: MS-based demethylation assay, positive control for RDM activity; assay type: biochemical; conditions: same conditions, MALDI-TOF MS / LC-MS/MS
Method: Reaction samples were thereafter analyzed by MALDI-TOF or LC-MS/MS.
Peptides were “trapped” on an in-house packed guard column (75-μm inner diameter × 20 mm, Acclaim PepMap® C18, 3 μm, 100 Å) using solvent A (0.1% (v/v) aqueous formic acid) at a pressure of 140 bar. Peptides were separated on an EASY-Spray Acclaim PepMap® analytical column (75 μm inner diameter × 15 mm, rapid separation liquid chromatography C18, 3 μm, 100 Å) using a linear gradient (length, 100 min; 3–60% solvent B (0.1% formic acid in acetonitrile), flow rate, 300 nl/min). The separated peptides were electro-sprayed directly into the spectrometer operating in a data-dependent mode using a collision-induced dissociation/electron transfer dissociation (CID/ETD)-based method. Full scan MS spectra (scan range 150–2000 m/z, resolution 30,000, AGC target 1 × 10^6, maximum injection time 250 ms) and subsequent CID MS/MS spectra (AGC target 3 × 10^4, maximum injection time 500 ms) of the 10 most intense peaks were acquired in the Orbitrap. CID fragmentation was performed at 35% of the normalized collision energy, and the signal intensity threshold was kept at 500 counts. ETD spectra (AGC cation target 5 × 10^4, AGC anion target 2 × 10^5, and cation maximum injection time 100 ms) were acquired in the ion trap. PEAKS® 8.0 (Bioinformatics Solutions, Inc., Waterloo, Canada) was used to analyze raw data. […]

JMJD6^Δ363–403 [3] = target: T1, JMJD6^Δ363–403; experiment: Standard MS-based demethylation assay (MALDI-TOF, LC-MS/MS); assay type: biochemical; set-up: two more variants (aa 1–362, JMJD6^Δ363–403, and aa 1–343, JMJD6^Δ344–403); His6 (N); made in house; host or cells: Escherichia coli Rosetta2(DE3); conditions: JMJD6^Δ363–403, 37 °C, HEPES-KOH pH 8.0, MALDI-TOF MS / LC-MS/MS
Method: Peptides were “trapped” on an in-house packed guard column (75-μm inner diameter × 20 mm, Acclaim PepMap® C18, 3 μm, 100 Å) using solvent A (0.1% (v/v) aqueous formic acid) at a pressure of 140 bar. Peptides were separated on an EASY-Spray Acclaim PepMap® analytical column (75 μm inner diameter × 15 mm, rapid separation liquid chromatography C18, 3 μm, 100 Å) using a linear gradient (length, 100 min; 3–60% solvent B (0.1% formic acid in acetonitrile), flow rate, 300 nl/min). The separated peptides were electro-sprayed directly into the spectrometer operating in a data-dependent mode using a collision-induced dissociation/electron transfer dissociation (CID/ETD)-based method. Full scan MS spectra (scan range 150–2000 m/z, resolution 30,000, AGC target 1 × 10^6, maximum injection time 250 ms) and subsequent CID MS/MS spectra (AGC target 3 × 10^4, maximum injection time 500 ms) of the 10 most intense peaks were acquired in the Orbitrap. CID fragmentation was performed at 35% of the normalized collision energy, and the signal intensity threshold was kept at 500 counts. ETD spectra (AGC cation target 5 × 10^4, AGC anion target 2 × 10^5, and cation maximum injection time 100 ms) were acquired in the ion trap. PEAKS® 8.0 (Bioinformatics Solutions, Inc., Waterloo, Canada) was used to analyze raw data. The raw MS files were searched against the respective protein sequences. […]

[4] = JMJD6^Δ363–403, MALDI-TOF MS, inhibitor concentration not given

| Molecule | Hydroxylation (JMJD6^Δ363–403 [1]) [%] | kcat/Km^app (JMJD6^Δ363–403 [1]) [µM⁻¹ s⁻¹] | kcat (JMJD6^Δ363–403 [1]) | Km (JMJD6^Δ363–403 [1]) [µM] | other results |
| --- | --- | --- | --- | --- | --- |
| O=C(O)c1ccnc(C(=O)O)c1 [2,4-PDCA, 2,4-pyridine dicarboxylic acid, reference compound] |  |  |  |  | Hydroxylation of ERα 251–262 peptide by JMJD6 on addition of the inhibitor (JMJD6^Δ363–403 [1]; [4]): Hydroxylation was ablated; Hydroxylation of WT pVHL166–177 by JMJD6 in the presence of the inhibitor (JMJD6^Δ363–403 [1]; [4]): did not manifest hydroxylation |
| DRKSYKHRSKSRDR [CROP357–370, fragment of SR protein CROP/LUC7L3] | 88.7 ± 4.9 | 4.2e-05 | 39.0 ± 3.6 × 10^−4 s^−1 | 93 ± 20 |  |
| ENRHRKRSHSRSRSR [U2AF65_21–35, fragment of the RS region of U2AF65] | 74.7 ± 4.1 | 6.8e-05 | 40.0 ± 2.2 × 10^−4 s^−1 | 59 ± 8.6 |  |
| ERGRRSRSTSKT [SRSF11_299–310, fragment of SRSF11] | 6.40 ± 0.90 |  |  |  |  |
| ERα251–262K252A: ERα 251–262 peptide with alanine substitution K252A (MAGGIRKDRRGG; UniProt P03372 251-262, looked up, fragment K252A) |  |  |  |  | JMJD6-catalyzed hydroxylation (+16-Da mass shift), result in words (JMJD6^Δ363–403 [1]): Hydroxylation was ablated |
| ERα251–262K257A: ERα 251–262 peptide with alanine substitution K257A (MKGGIRADRRGG; UniProt P03372 251-262, looked up, fragment K257A) |  |  |  |  | JMJD6-catalyzed hydroxylation (+16-Da mass shift), result in words (JMJD6^Δ363–403 [1]): Hydroxylation was ablated |
| GsMTx4: inhibitor of stretch-activated BK channel (mismatched supplement) (GCLEFWWKCNPNDDKCCRPKLKCSKLFKLCNFSF; ends and bridges not checked; cysteine pairing not given here; UniProt Q7YT39 47-80, looked up) |  |  |  |  | Po of SAKcaC (amplitude histogram) ([2]; 1 mM intracellular Ca2+): 35.5; Po of SAKcaC (amplitude histogram) ([2]; –40 mV, 0.8 µM intracellular Ca2+): 14.2; Effect on stretch-activated BK channel and its single-channel conductance, result in words ([2]; 100 nM GsMTx4 in the pipette, 1 mM intracellular Ca2+, 30 min after onset of back-filling): inhibits stretch-activated BK channel without changing single-channel conductance |
| H3_1–25: histone 3 peptide with unmodified arginine residues |  |  |  |  | JMJD6-catalyzed hydroxylation (+16-Da mass shift), result in words (JMJD6^Δ363–403 [1]): hydroxylation of lysine residues was also observed |
| H4_1–30: histone 4 peptide with unmodified arginine residues |  |  |  |  | JMJD6-catalyzed hydroxylation (+16-Da mass shift), result in words (JMJD6^Δ363–403 [1]): hydroxylation of lysine residues was also observed |
| KRHSRSRSRS [Acinus S′95–604, fragment of Acinus S′] | 12.5 ± 3.0 |  |  |  |  |
| KSKERKRSRDRE [RBM39_51–62, fragment of RBM39] | 37.0 ± 7.6 |  |  |  |  |
| NPKRSRSREHRR [LUC7L2_267–278, reported JMJD6 substrate, fragment of SR protein LUC7L2, reference compound] | 98.5 ± 4.8 | 0.000208 | 106 × 10^−4 s^−1 and 106 ± 4.0 × 10^−4 s^−1 | 51 ± 4.6 |  |
| PRSRSRSRDRRRKE [Acinus S′447–460, fragment of Acinus S′] | 25.6 ± 2.8 |  |  |  |  |
| RDRRRRSKPLTRGAK [U2AF65_55–70, fragment of U2AF65] | 61.0 ± 6.4 | 3.4e-05 | 43.0 ± 5.2 × 10^−4 s^−1 | 124 ± 34 |  |
| RKHRSRSRDRRRSKS [CROP341–355, fragment of SR protein CROP/LUC7L3] | 92.7 ± 6.9 | 0.000217 | 165 ± 12 × 10^−4 s^−1 | 76 ± 13 |  |
| RKRSRSKERRRS [RBM39_71–82, fragment of RBM39] | 87.6 ± 7.0 | 0.000322 | 284 ± 11 × 10^−4 s^−1 | 88 ± 8.7 |  |
| RSKKRKKSKSRS [RBM39_31–42] | 99.0 ± 0.70 | 0.000455 | 255 ± 15 × 10^−4 s^−1 | 56 ± 9.6 |  |
| RSKSPRRRRSHSR [SRSF11_286–298, fragment of SRSF11] | 90.5 ± 5.0 | 0.000195 | 80.0 ± 3.9 × 10^−4 s^−1 | 41 ± 6.6 |  |
| RSPKRKLSRSPSPR [SRSF11_358–372, fragment of SRSF11] | 44.1 ± 3.9 | 0.000229 | 174 ± 19 × 10^−4 s^−1 | 76 ± 21 |  |
| RSRSGTRSPKKPSR [SRSF11_347–360, fragment of SRSF11] | 97.0 ± 2.2 | 0.000159 | 146 ± 9.6 × 10^−4 s^−1 | 92 ± 14 |  |
| SGR(me2s)GKGGKGLGKGGAKRHK-biotin [H4R3(me2s)1–18, histone 4 peptide with symmetrically di-methylated Arg3 and K-biotin] |  |  |  |  | JMJD2E-catalyzed demethylation (−14 and −28 Da mass shifts), result in words (JMJD2E (KDM4E)): manifested demethylation; JMJD6-catalyzed demethylation (−14 or −28 Da mass shift), result in words (JMJD6^Δ363–403 [3]): does not have RDM activity; JMJD6-catalyzed hydroxylation (+16-Da mass shift), result in words (JMJD6^Δ363–403 [1]): catalyzes hydroxylation |
| SKSRSRSHERKRS [RBM39_38–50, fragment of RBM39] | 79.0 ± 8.9 | 0.000395 | 281 ± 15 × 10^−4 s^−1 | 71 ± 9.9 |  |
| SRDHKRSRSRERRRS [CROP311–325, fragment of SR protein CROP/LUC7L3] | 89.3 ± 1.9 | 0.000269 | 191 ± 6.6 × 10^−4 s^−1 | 71 ± 7.2 |  |
| SRERRKLSRSRSR [LUC7L1_287–298, fragment of LUC7L1] | 18.3 ± 3.1 |  |  |  |  |
| SRRRSRSKSPFR [RBM39_121–132, fragment of RBM39] | 82.5 ± 5.6 | 0.000303 | 300 ± 23 × 10^−4 s^−1 | 99 ± 19 |  |
| SRSRRRSHSKSR [SRSF11_271–282, fragment of SRSF11] | 33.6 ± 1.8 |  |  |  |  |
| SRSRSRDRKRRSRSRDR [U2AF65_30–46, fragment of the RS region of U2AF65] | 72.4 ± 6.5 | 0.000118 | 92.0 ± 7.0 × 10^−4 s^−1 | 78 ± 15 |  |
| pVHL166–177: lysine-containing pVHL sequence (VRSLVKPENYRR; UniProt P40337 166-177, looked up, fragment) |  |  |  |  | JMJD6-catalyzed hydroxylation (+16-Da mass shift), result in words (JMJD6^Δ363–403 [1]): presence of a +16-Da mass shift |
| pVHL166–177K171A: alanine variant of pVHL166–177 (VRSLVAPENYRR; UniProt P40337 166-177, looked up, fragment K171A) |  |  |  |  | JMJD6-catalyzed hydroxylation (+16-Da mass shift), result in words (JMJD6^Δ363–403 [1]): did not manifest hydroxylation |
